Read-outs that look alike come from different tables or passages of the source.
Tests used:
U87 = assay: Glioma cell viability (MTT) under XRT-TMZ with or without CRAd-S-pk7; format: cell-based, human; details: for IC50: Homo sapiens, U-87 MG
Description: (§1) FIGS. 42A and 42B illustrate antitumor effects of CRAd-Survivin-pk7 (CRAd-S-pk7)-loaded NSCs and their combination with XRT-TMZ against glioma cell lines in vitro according to one embodiment. (FIG. 42A): Cytotoxicity of patient-derived GBM43 tumor cells 96 hours after coculture with CRAd-S-pk7-loaded NSCs at the NSC to GBM43 cell ratios of 1:0, 1:2, 1:5, 1:10, or 1:50. Top: Representative light microscope pictures of GBM43 viability. Bottom: Mean luciferase intensity values represented as the percentages of viable glioma cells compared with control. (FIG. 42B): U251 and U87 glioma cell viability measured by 3-(4,5-dimethylthiazol-2-yl)-2,5-diphenyltetrazolium bromide at 96 hours after treatment. The addition of CRAd-S-pk7 (50 infectious units) to conventional XRT-TMZ therapy reduced the percentage of glioma cell viability in both tested cell lines. […] Abbreviations: NSC, neural stem cell; OV, oncolytic virus; TMZ, temozolomide; XRT, radiation therapy.
(§2) FIGS. 44A and 44B show the optimization of combination therapy in vitro according to one embodiment. (FIG. 44A): Cytotoxicity of U251 and U87 glioma cell lines and GBM39 patient-derived cell line treated with Rx-OV or OV-Rx. Left: The percentage of viability of glioma cells measured by 3-(4,5-dimethylthiazol-2-yl)-2,5-diphenyltetrazolium bromide 96 hours after treatment. Right: Representative light microscope pictures of U87 glioma cell viability (magnification, ×10). (FIG. 44B): Percentage of apoptotic GBM43 cells at 48 hours after treatment with Rx-OV or OV-Rx treatment protocols as measured by the expression of active caspase-3-positive tumor cells by FACS (bottom). Top: Representative FACS plots. *, p<0.05; **, p<0.01; ***, p<0.001. Abbreviations: DMSO, dimethyl sulfoxide; OV-Rx, ionizing radiation-temozolomide therapy 24 hours after oncolytic virus; PE, phycoerythrin; Rx-OV, oncolytic virus 24 hours after ionizing radiation-temozolomide therapy.
(§3) For all studies, the cells and mice received XRT in accordance with the University of Chicago's radiation safety guidelines and protocols. All cells received a single dose of 2 Gy XRT. For animal studies, 10 Gy fractioned dose radiotherapy (2 Gy for 5 consecutive days) was used. The animals were irradiated with a lead cover shielding their entire body, with only their heads exposed. […] For in vivo studies, the mice received 2.5, 5, 10, or 30 mg/kg TMZ via intraperitoneal injection.
(§4) A green fluorescent protein (GFP) expressing HB1.F3-CD cell line was generated as described elsewhere (Ahmed et al. 2011a). GBM43-Fluc cells were plated in 12-well plates and cocultured with HB1.F3-CDGFP cells loaded with CRAd-S-pk7 in the following NSC to glioma cell ratios: 1:0, 1:2, 1:5, 1:10, and 1:50. After 96 hours, the cells were collected, lysed with reporter lysis buffer (Promega, Madison, Wis., http://www.promega.com), and added to luciferase assay reagent (Promega) according to the manufacturer's protocol. Following lysate preparation, the mean fluorescence intensity (MFI) was estimated for each group of cocultured cells using the GloMax 20/20 Luminometer (Promega). The mean luciferase intensity values were represented as the percentage of cells viable compared with mock cells. U251, U87, and GBM39 cell viability was determined using 3-(4,5-dimethylthiazol-2-yl)-2,5-diphenyltetrazolium bromide (MTT) cell proliferation kit (Roche Diagnostics, Mannheim, Germany, http://www.roche-applied-science.com). The viability was subsequently determined by MTT as described by the manufacturer's protocol. Cell viability was expressed as the percentage of cells alive compared with the dimethyl sulfoxide-treated control.
(§5) Next, it was tested whether CRAd-S-pk7 could enhance the therapeutic efficacy of conventional XRT-TMZ. U251 or U87 glioma cells were treated with conventional therapy consisting of 2 Gy XRT and varying concentrations of TMZ (0-1×10^3 µM) or conventional treatment plus 50 IU of CRAd-S-pk7, and cell viability was measured by MTT at 96 hours. […]

U251 = assay: as above; format: cell-based, human; details: for IC50: Homo sapiens, U-251
Description: as §1, §2, §3, §4, §5

[1] = test system: U87MG intracranial glioma xenografts; assay: U87MG intracranial xenograft, TMZ and CRAd-S-pk7 combination survival; format: in vivo, mice
Description: FIGS. 11A, 11B and 11C show in vivo anti-tumor activity of CRAd-S-pk7 in combination with TMZ according to one embodiment. (FIG. 11A) Five consecutive injections of TMZ at 70 mg/kg/day (▾) achieve 100% survival for 80 days post U87MG implantation, whereas 5 TMZ injections at 10 mg/kg/day (∘) had significant increase in survival compared to mock treatment ( )(p<0.05).
Because temozolomide (TMZ) is the standard of care for patients with GBM, the efficacy of TMZ and CRAd-S-pk7 combination was evaluated in vivo in mice with U87MG intracranial (i.c.) glioma xenografts. To employ a dose that resembles the partial therapeutic effect of TMZ seen in the clinical scenario, different doses of TMZ were tested. Based on those studies, a dose of 10 mg/kg/day×5 days of intraperitoneal (i.p.) TMZ was chosen to study the efficacy of a TMZ and CRAd-S-pk7 combination treatment, since this dose led to an increase in survival but remained non-curative (FIG. 11A) (log-rank test, p<0.05). Additionally, different doses of i.c. CRAd-S-pk7 injections were tested to investigate which dose provides an increase in survival that could be further enhanced by the addition of co-adjuvant TMZ. A dose of 3×10^9 vp/mouse×2 injections of CRAd-S-pk7 was chosen for testing the therapeutic effects of TMZ+CRAd-S-pk7 combination, since it led to a partial efficacy that could be further enhanced (FIG. 11B) (log-rank test p<0.05).
Based on the above findings, the combination of TMZ and CRAd-S-pk7 was tested for efficacy in terms of survival (FIG. 11C). The combination of TMZ (10 mg/kg/day×5) plus two i.c. injections of CRAd-S-pk7 3×10^9 vp/mouse led to a 90% of long term survivors (>90 days) (LTS). […] Consistent with the finding of an additive cytotoxic effect of TMZ and CRAd-S-pk7 in vitro experiments, this treatment combination led to an improved survival in mice bearing intracranial human glioma xenografts.

[2] = 2 Gy XRT plus 50 IU of CRAd-S-pk7, MTT 96 hours, read-out: IC50 values for TMZ
[3] = treated with XRT (2 Gy) simultaneously, read-out: IC50

Structure (SMILES): Cn1nnc2c(C(N)=O)ncn2c1=O [TMZ, temozolomide]
- IC50 (U87; [2]): 10 µM
- IC50 (U87; [3]): 25 µM
- decrease of TMZ IC50 when OV was added (U87; XRT-TMZ): 15 µM
- IC50 (U251; [2]): 13 µM
- IC50 (U251; [3]): 44 µM
- decrease of TMZ IC50 when OV was added (U251; XRT-TMZ): 31 µM
- median survival ([1]; TMZ 10 mg/kg/day×5 alone or CRAd-S-pk7 3×10^9 vp/mouse×2 alone): 51 days
- long term survivors (>90 days) (LTS) ([1]; TMZ 10 mg/kg/day×5 i.p., CRAd-S-pk7 3×10^9 vp/mouse×2 i.c., alone or combined): 7%
- survival for 80 days post U87MG implantation ([1]; TMZ 70 mg/kg/day, five consecutive injections): 100%

— patent US10709745B2, “Tropic cell based virotherapy for the treatment of cancer” (priority 2013, dated 2020)
